Values belong to the compound of their own block, whether it stands above or below them.
How the values were obtained:
[1] = target: T1, Amine oxidase [flavin-containing] B (Homo sapiens, UniProt P27338); assay: Inhibition of human MAOB
T1 sequence (P27338 whole entry): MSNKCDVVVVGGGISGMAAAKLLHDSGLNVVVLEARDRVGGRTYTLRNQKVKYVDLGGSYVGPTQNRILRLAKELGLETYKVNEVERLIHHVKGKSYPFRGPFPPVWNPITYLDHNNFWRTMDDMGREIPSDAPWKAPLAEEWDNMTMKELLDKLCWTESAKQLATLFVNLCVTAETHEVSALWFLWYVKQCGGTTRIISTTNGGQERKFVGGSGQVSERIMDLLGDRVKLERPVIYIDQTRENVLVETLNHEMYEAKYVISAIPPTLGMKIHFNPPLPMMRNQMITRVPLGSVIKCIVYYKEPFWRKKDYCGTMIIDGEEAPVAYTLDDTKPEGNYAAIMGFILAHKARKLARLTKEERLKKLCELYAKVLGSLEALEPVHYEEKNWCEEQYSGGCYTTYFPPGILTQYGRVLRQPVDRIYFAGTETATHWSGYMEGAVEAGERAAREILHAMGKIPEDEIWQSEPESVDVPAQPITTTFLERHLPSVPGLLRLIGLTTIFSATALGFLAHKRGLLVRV

[2] = target: T2, MAO-B (amine oxidase [flavin-containing] B) (Homo sapiens, UniProt P27338); assay: Inhibition of human MAOB at 1 uM relative to control
T2 sequence (P27338 whole entry): T1 sequence (P27338 whole entry)

[3] = target: T3, MAO-A (amine oxidase [flavin-containing] A) (Homo sapiens, UniProt P21397); assay: Inhibition of human MAOA at 1 uM relative to control
T3 sequence (P21397 whole entry): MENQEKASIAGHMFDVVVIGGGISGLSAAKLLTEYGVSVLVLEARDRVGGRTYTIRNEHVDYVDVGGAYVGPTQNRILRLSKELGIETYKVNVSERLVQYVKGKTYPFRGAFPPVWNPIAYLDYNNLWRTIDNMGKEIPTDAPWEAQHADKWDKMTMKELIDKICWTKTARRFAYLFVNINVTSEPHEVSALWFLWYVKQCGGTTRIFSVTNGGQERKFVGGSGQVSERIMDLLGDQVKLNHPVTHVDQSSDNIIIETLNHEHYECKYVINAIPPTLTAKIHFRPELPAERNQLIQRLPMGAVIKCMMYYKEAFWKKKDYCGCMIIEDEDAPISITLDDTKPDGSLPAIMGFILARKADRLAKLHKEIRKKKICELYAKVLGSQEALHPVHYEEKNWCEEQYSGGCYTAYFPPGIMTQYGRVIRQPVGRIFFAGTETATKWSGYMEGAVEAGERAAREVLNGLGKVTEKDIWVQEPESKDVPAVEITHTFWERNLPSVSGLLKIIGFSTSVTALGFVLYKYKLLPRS

[4] = target: T4, Amine oxidase [flavin-containing] A (Homo sapiens, UniProt P21397); assay: Inhibition of human MAOA
T4 sequence (P21397 whole entry): T3 sequence (P21397 whole entry)

[5] = species on record: Homo sapiens; assay: Selectivity index, ratio of IC50 for human MAOA to IC50 for human MAOB
[6] = species on record: Homo sapiens; assay: Selectivity index, ratio of IC50 for inhibition of human MAOA to IC50 for IC50 for inhibition of human MAOB
[7] = species on record: Homo sapiens; assay: Selectivity index, ratio of Ki for recombinant human MAOA to Ki for recombinant human MAOB
[8] = target: T1, Amine oxidase [flavin-containing] B; assay: Inhibition of recombinant human MAOB using p-tyramine as substrate after 15 mins by Amplex Red dye-based fluorometric method
[9] = target: T4, Amine oxidase [flavin-containing] A; assay: Inhibition of recombinant human MAOA using p-tyramine as substrate after 15 mins by Amplex Red dye-based fluorometric method
[10] = target: T4, Amine oxidase [flavin-containing] A; assay: Inhibition of recombinant human MAOA using kynuramine as substrate after 30 mins by fluorescence assay

Compound: CCn1c(=O)c2c(nc(/C=C/c3ccc(OC)c(OC)c3)n2C)n(CC)c1=O [ISTRADEFYLLINE]
Ki [1]: 0.027 µM

Compound: O=C(SCCc1ccco1)c1cc2ccccc2oc1=O
IC50 [1]: 0.2 µM
IC50 [4]: 39.7 µM
Ratio IC50 [5]: 189

Compound: O=C1c2ccccc2C(=O)c2c(O)c(O)cc(O)c21 [PURPURIN]
IC50 [1]: > 40 µM

Compound: Cc1ncc(/C=C/c2ccc(CN3CCOCC3)c(O)c2)c(CO)c1O
IC50 [10]: 16 µM

Compound: Cn1c(=O)c2c(nc(-c3cccc(Cl)c3)n2C)n(C)c1=O
Ki [1]: 36 µM

The remaining lines, values ahead:

Ki [1]: 3.42 µM
inhibition at 1 µM [2]: 30.9%
inhibition at 1 µM [3]: 0%
Compound: Cn1c(=O)c2[nH]c(-c3cccc(NC(=O)/C=C/c4cccc(F)c4)c3)nc2n(C)c1=O

Ratio IC50 [6]: 9e-07
Ki [4]: 0.14 µM
Compound: COc1cc(C2=NN(C(=O)Oc3ccccc3)C(c3ccc(O)c(OC)c3)C2)ccc1O (configuration not stated)

Ratio Ki [7]: 0.19
Ki [8]: 2.55 µM
Ki [9]: 0.49 µM
Compound: O=C(/C=C/c1ccc([N+](=O)[O-])cc1)c1ccc(Cl)s1

Ratio Ki [7]: 16.8
Ki [9]: 5.22 µM
Compound: CCc1ccc(/C=C/C(=O)c2ccc(Cl)s2)cc1
